Results: publication PMC5335257, “Promoting in vivo remyelination with small molecules: a neuroreparative pharmacological treatment for Multiple Sclerosis” (Scientific Reports, 2017)

Legend:
GSK-3 = system: GSK-3; parameters: method as in PMID 24437940; details: read-out: GSK-3 inhibition IC50; cited from earlier work
[1] = system: cerebellar slices demyelinated with LPC; test: Ex vivo remyelination in cerebellar slice cultures demyelinated with LPC; assay type: cell-based, CD1 P7 mice; details: 5 μM, 3 days post lesion (3DPL)
Procedure: The protocol used was modified from previously described. CD1 P7 mice were decapitated, and their cerebella were dissected into ice-cold HBSS (Invitrogen). 300 μm sagittal slices of cerebellum were cut using a McIllwain tissue chopper, placed on Millicell-CM organotypic culture inserts (3 slices per insert; Millipore) in a medium containing HBSS:BME: horse serum (1:2:1, Invitrogen), 28 mM D (+) - glucose (Normapur), […] L-Glutamine (Invitrogen) and 100 U/mL penicillin, 0.1 mg/mL streptomycin and 0.25 μg/ml Amphotericin B antibiotic anti-mycotic solution (Sigma) and maintained at 5% CO2 and 37 °C. Medium was changed every two days, and after 7 days in culture, demyelination was induced by addition of 0.5 mg/ml LPC (Sigma) to the medium for 15 h. After that, slices were treated with fresh medium containing PDE7-GSK3 or GSK3 inhibitors (VP1.15, VP3.15 or TDZD8; 5 μM). Cultures were maintained for 1 or 3 days post lesion (DPL), and then fixed for 40 minutes and immunostained with anti-MBP antibodies (myelin basic protein –as a marker of myelin; 1:200; Serotec; Cat#MCA4095) and anti-neurofilament antibody (as a marker of axons; 1:200; Abcam; Cat#ab8135). Fluorescence images were taken on a confocal SP5 resonant scanner (Leica Microsystems) at 1μm intervals in white matter areas at x40 magnification. The photographs were merged and co-localisation of both markers was quantified with Image J software using the colocalization highlighter plugin. This measurement was related to the area occupied by axons (neurofilament staining) and normalized with control values showing the data as the mean normalized myelination index ± SEM. Quantification was made in at least three independent experiments.

[2] = system: corpus callosum of LPC-injected mice; test: In vivo remyelination, LPC demyelination model; parameters: species or system C57/BL6 male mice; details: 10 mg/kg i.p. from 9 dpi
Procedure: Anaesthetized 8 week old C57/BL6 male mice were injected with 2 μl of 1% LPC through a hole drilled in the skull at stereotactic coordinates 1.2 mm posterior, 0.5 mm lateral, 1.4 mm deep to the bregma over 4 minutes using a 30-gauge needle attached to a Hamilton syringe, driven by a KD Scientific Nano pump, for 4 minutes to reduce backflow as previously described. At 9 days post injection (dpi), the first intraperitoneal dose of PDE7-GSK3 inhibitors (VP1.15 or VP3.15; 10 mg/kg of animal) was injected using the same solution detailed above for the cuprizone model. Each inhibitor was injected into a group of 10 mice and another group of 10 mice was injected with the vehicle. Two days after, a second dose was injected (11 dpi) and 5 mice of each group were perfused at 14 dpi with 4% PFA and 2% glutaraldehyde (GTA) in phosphate buffer. The remaining 5 animals of each group received a third injection of inhibitors (15 dpi) and were perfused at 21 dpi. A control group of 3 non-lesioned and non-treated mice was used as control. Fixed brains were post-fixed in 1% GTA for 7 days and then coronally cut into 1 mm slices. The slices containing the injected areas were selected and the area of interest was cut and processed for electron microscopy into a resin (Araldite/TAAB 812 Resin Kit, TAAB) following manufacturer instructions.
In order to detect the injured areas for investigation, sagittal semi-thin sections (1 μm) were cut using an ultramicrotome (Leica) and stained with toluidine blue. Ultra-thin sections (60 nm thick) were cut and stained in uranyl acetate and lead citrate and the ultrastructure was analysed taking images with a GatanOrius CCD camera coupled to a transmission electronic microscope (Philips CM120). The percentage of myelinated fibres and the thickness of myelin sheaths were examined. The mean percentage of myelinated fibres was measured from 10 fields per animal. Grids were overlaid onto the images and all axons intersecting with the grid lines were counted as myelinated or not[83][84]. The thickness of myelin around myelinated fibres was expressed as a g-ratio (axon perimeter divided by myelinated fibre perimeter) using ImageJ by tracing around a minimum of 100 individual fibres per mouse, using a pen and electronic pad (Bamboo pad, Wacom). To select the fibres randomly, a grid composed by 8 μm[2] squares was overlaid onto the images and fibres in alternate squares were measured. Data were expressed as the mean ± SEM.

c1ccc(-c2n/c(=N/CCN3CCOCC3)sn2-c2ccccc2)cc1 [VP3.15]
IC50 (GSK-3): 880 nM
remyelination (normalized myelination index) [1]: increased
thickness of myelin sheaths (G-ratio) vs untreated demyelinated control [2]: increased the thickness
percentage of myelinated callosal fibers vs vehicle ([2]; analysed at 14 or 21 dpi): did not show any effect
